Toxic doses and inconclusive results are not listed. Rule for the calls: active = survival T/C of 150% or more; inactive = T/C below 125% in these data. Starred links: 1 amine or outer side, 2 acyl side, 3 side chain; linkers in the order of their positions; H or OH if unused. Positions of bridges follow the written chain, without caps; N, C: chain ends. Non-standard residues stand in square brackets, D forms with d. Residues, ends and D or L forms follow the SMILES beside them. Chains are numbered I, II in the order given. ξ: configuration not given here. *: point of attachment. Actinocin(1to9) = Cc1c2oc3c(C)ccc(C(=O)[*:2])c3nc-2c(C(=O)[*:1])c(N)c1=O; Trt = c1ccc(C(c2ccccc2)(c2ccccc2)*)cc1; NMeV = CN[CH](C(=O)O)C(C)C; Cbz = O=C(OCc1ccccc1)*; OtBu = CC(C)(C)O*; ξC = NC(CS)C(=O)O; Sar = CNCC(=O)O
Tested on: CD2F1 mice, L1210 leukemia ip, survival T/C
Assay: NCI In Vivo Anticancer Drug Screen. Data for tumor model L1210 Leukemia (intraperitoneal) in CD2F1 (CDF1) mice
Conditions: endpoint: mean survival time, higher = longer survival
In short: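 Activity against a transplanted murine tumor was judged by comparing the compound group with a vehicle group. The outcome in the treated animals was divided by that in the controls.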

[1] = dose: 100.0 mg/kg/injection, schedule: Q01DX009 (ip), vehicle: saline with Tween-80
[2] = dose: 100.0 mg/kg/injection, schedule: Q04DX003 (ip), vehicle: saline with Tween-80
[3] = dose: 200.0 mg/kg/injection, schedule: Q01DX009 (ip), vehicle: saline with Tween-80
[4] = dose: 200.0 mg/kg/injection, schedule: Q04DX003 (ip), vehicle: saline with Tween-80
[5] = dose: 400.0 mg/kg/injection, schedule: Q04DX003 (ip), vehicle: saline with Tween-80
[6] = dose: 100.0 mg/kg/injection, schedule: Q01DX001 (ip), vehicle: saline with Tween-80
[7] = dose: 200.0 mg/kg/injection, schedule: Q01DX001 (ip), vehicle: saline with Tween-80
[8] = dose: 400.0 mg/kg/injection, schedule: Q01DX001 (ip), vehicle: saline with Tween-80
[9] = dose: 100.0 mg/kg/injection, schedule: Q04DX003 (ip), vehicle: saline
[10] = dose: 200.0 mg/kg/injection, schedule: Q04DX003 (ip), vehicle: saline

Measured: T/C

Cc1nc(C(=O)O)c(C(=O)O)[nH]1
inactive: [1] 98 % of control | [2] 100 % of control | [3] 97 % of control | [4] 94 % of control

CC(C)(C)OC(=O)CNC(=O)CNC(=O)CNC(=O)C(CSC(c1ccccc1)(c1ccccc1)c1ccccc1)NC(=O)OCc1ccccc1 (centres undefined) (Cbz-[ξC](Trt)GGG-OtBu)
inactive: [2] 101 % of control | [4] 95 % of control | [5] 92 % of control

Oc1ccc2ccccc2c1NC(=S)Nc1ccccc1
inactive: dose: 100.0 mg/kg/injection, schedule: Q04DX002 (ip), vehicle: Klucel (hydroxypropylcellulose) (HPC) 97 % of control | dose: 200.0 mg/kg/injection, schedule: Q04DX002 (ip), vehicle: Klucel (hydroxypropylcellulose) (HPC) 93 % of control | dose: 400.0 mg/kg/injection, schedule: Q04DX002 (ip), vehicle: Klucel (hydroxypropylcellulose) (HPC) 93 % of control

O=c1[nH]c2ccc(Cl)cc2c2ccccc12
inactive: dose: 100.0 mg/kg/injection, schedule: Q01DX001 (ip), vehicle: carboxymethylcellulose (CMC) 91 % of control | dose: 200.0 mg/kg/injection, schedule: Q01DX001 (ip), vehicle: carboxymethylcellulose (CMC) 97 % of control | dose: 400.0 mg/kg/injection, schedule: Q01DX001 (ip), vehicle: carboxymethylcellulose (CMC) 105 % of control

COc1ccc2c(c1)N(CC(C)C[N+](C)(C)CCCCCCCCCC[N+](C)(C)CC(C)CN1c3ccccc3Sc3ccc(OC)cc31)c1ccccc1S2 (centres undefined)
inactive: dose: 6.25 mg/kg/injection, schedule: Q01DX009 (ip), vehicle: saline 100 % of control | dose: 12.5 mg/kg/injection, schedule: Q01DX009 (ip), vehicle: saline 92 % of control | dose: 25.0 mg/kg/injection, schedule: Q01DX009 (ip), vehicle: saline 106 % of control

CCC(C)C1NC(=O)C(NC(=O)c2c3nc4c(C(=O)NC5C(=O)NC(C(C)CC)C(=O)N6CCCC6C(=O)N(C)CC(=O)N(C)C(C(C)C)C(=O)OC5C)ccc(C)c4oc-3c(C)c(=O)c2N)C(C)OC(=O)C(C(C)C)N(C)C(=O)CN(C)C(=O)C2CCCN2C1=O (centres undefined) (I: TIP[Sar][NMeV] / II: TIP[Sar][NMeV]; ester I:1-I:C, II:1-II:C; linker I:N-II:N via Actinocin(1to9); configuration not given here)
inactive: dose: 0.25 mg/kg/injection, schedule: Q01DX001 (ip), vehicle: saline 112 % of control | dose: 0.5 mg/kg/injection, schedule: Q01DX001 (ip), vehicle: saline 120 % of control

CNc1cc(=O)[nH]cn1
inactive: [6] 95 % of control | [7] 100 % of control | [8] 101 % of control

COS(=O)(=O)O
inactive: [9] 96 % of control | [10] 96 % of control

Cc1ccc(-c2nc(SCc3ccccc3)[nH]c(=O)c2CCO)cc1
inactive: dose: 100.0 mg/kg/injection, schedule: Q04DX003 (ip), vehicle: Klucel (hydroxypropylcellulose) (HPC) 93 % of control | dose: 200.0 mg/kg/injection, schedule: Q04DX003 (ip), vehicle: Klucel (hydroxypropylcellulose) (HPC) 96 % of control | dose: 400.0 mg/kg/injection, schedule: Q04DX003 (ip), vehicle: Klucel (hydroxypropylcellulose) (HPC) 91 % of control

CCOC(=O)CCN(C)C
inactive: [9] 97 % of control | [10] 100 % of control | dose: 400.0 mg/kg/injection, schedule: Q04DX003 (ip), vehicle: saline 100 % of control

CCOC(=O)C(CC)(OC(C)=O)C(=O)C=O (centres undefined)
inactive: dose: 100.0 mg/kg/injection, schedule: Q01DX001 (ip), vehicle: saline 108 % of control | dose: 200.0 mg/kg/injection, schedule: Q01DX001 (ip), vehicle: saline 112 % of control | dose: 400.0 mg/kg/injection, schedule: Q01DX001 (ip), vehicle: saline 116 % of control

Nc1ccc2c(S(=O)(=O)O)ccc(O)c2c1
inactive: [1] 100 % of control | [2] 96 % of control | [3] 93 % of control | [4] 96 % of control | dose: 400.0 mg/kg/injection, schedule: Q01DX009 (ip), vehicle: saline with Tween-80 90 % of control | [5] 98 % of control

COc1ccc2nc3cc(Cl)ccc3c(Nc3ccc(C(O)CCN(C)C)cc3)c2c1 (centres undefined)
inactive: dose: 75.0 mg/kg/injection, schedule: Q01DX001 (ip), vehicle: saline 92 % of control | dose: 150.0 mg/kg/injection, schedule: Q01DX001 (ip), vehicle: saline 92 % of control | dose: 300.0 mg/kg/injection, schedule: Q01DX001 (ip), vehicle: saline 90 % of control

CC1CCCCC1NC(=O)c1ccccc1 (centres undefined)
inactive: [6] 100 % of control | [7] 98 % of control | [8] 87 % of control

c1ccc2ncccc2c1
inactive: dose: 100.0 mg/kg/injection, schedule: Q01DX009 (ip), vehicle: other 103 % of control | dose: 200.0 mg/kg/injection, schedule: Q01DX009 (ip), vehicle: other 101 % of control

C=CCOCC(O)C[As](=O)(O)c1ccc(Cl)cc1 (centres undefined)
inactive: dose: 6.25 mg/kg/injection, schedule: Q04DX003 (ip), vehicle: saline with Tween-80 109 % of control | dose: 12.5 mg/kg/injection, schedule: Q04DX003 (ip), vehicle: saline with Tween-80 111 % of control

COC1=C(OCc2ccccc2)C(=O)OC1C(O)CO (centres undefined)
inactive: [6] 98 % of control | [7] 97 % of control | [8] 93 % of control

CC(C)(C)c1cccc(C(C)(C)C)c1OC(=O)NS(=O)(=O)c1ccccc1
inactive: dose: 12.5 mg/kg/injection, schedule: Q04DX003 (ip), vehicle: acetone 101 % of control | dose: 25.0 mg/kg/injection, schedule: Q04DX003 (ip), vehicle: acetone 101 % of control | dose: 50.0 mg/kg/injection, schedule: Q04DX003 (ip), vehicle: acetone 113 % of control

ClCC(Cl)CN(Cc1ccccc1)Cc1ccccc1 (centres undefined)
inactive: [6] 102 % of control | [1] 102 % of control | [7] 93 % of control | [3] 104 % of control | [8] 98 % of control
